Assay results from patent US20230174526A1, “BENZOTHIAZOLYL BIARYL COMPOUND, AND PREPARATION METHOD AND USE” (SHANGHAI RINGENE BIOPHARMA CO., LTD., priority 2020, published 2023).

What was measured:
[1] = target: T1, KRAS^G12C/SOS1 (Homo sapiens, UniProt P01116, G12C); assay: KRAS^G12C/SOS1 protein-protein interaction Binding assay (CisBio kit); conditions: class symbols
T1 construct: purchased CisBio
Protocol: CisBio’s KRAS^G12C/SOS1 kit was used to test the efficacy of the compound on inhibiting the protein-protein interaction between SOS1 and KRAS^G12Cby Binding assay.Results were expressed as IC50values.
Test methods: (1) the test compound was tested at a concentration of 1000 nM. Diluted to 3-fold diluted compound of a 200-fold final concentration of 100% DMSO solution in a 384-well plate at 10 concentrations. 50 nL of 200-fold final concentration of compound was transferred to the destination plate 384 well plate using a dispenser Echo 550.50 nL of 100% DMSO was added to the negative control wells and positive control wells; (2) 4-fold final concentration of Tag1 SOS1 solution was prepared using Diluent buffer; (3) 2.5 µL of 4-fold final concentration of Tag1 SOS1 solution was added to the 384-well plate; (4) 4-fold final concentration of Tag2 KRAS^G12C solution was prepared using Diluent buffer; (5) 2.5 µL of 4-fold final concentration of Tag2 KRAS^G12C solution was added to compound wells and positive control wells, respectively; 2.5 µL of diluent buffer was added to negative control wells; (6) the 384-well plate was centrifuged at 1000 rpm for 30 seconds, shaken and mixed, and incubated at room temperature for 15 min; (7) 1-fold final concentration of Anti Tag1 TB3+ solution and 1-fold final concentration of Anti Tag2 XL665 solution were prepared with Detection buffer, and 5 µL of the mixture was added to each well after mixing the two solutions; (8) the 384-well plate was centrifuged at 1000 rpm for 30 seconds, shaken and mixed, and incubated at room temperature for 120 minutes; (9) the Envision enzyme marker was used to read
Em665/620; (10) data analysis, calculation formula; where Min signal is the mean value of negative control wells, Max signal is the mean value of positive control wells.The log value of concentration was used as the X-axis and the percentage inhibition as the Y-axis to fit the quantitative efficacy curve using the log(inhibitor) vs. response Variable slope of the quantitative efficacy curve of the analytical software GraphPad Prism 5 to derive the IC50 value of each compound on the enzyme activity.The fitting formula was: Y=Bottom+(Top Bottom)/(1+10^A((LogIC50X)^∗ HillSlope)).

[2] = Metabolic stability assay, mouse liver microsomes; type: in vitro ADME; conditions: mouse liver microsomes 0.5 mg/mL, 1 µM compound, read-out: Liver microsomal stability (T½ /min) Mouse
Protocol: (§1) Metabolic stability assay: A warm incubation for metabolic stability was performed with a system of 150 µL of liver microsomes (final concentration 0.5 mg/mL) containing NADPH (final concentration 1 mM), 1 µM of the test compound and positive control midazolam or negative control atenolol, and the reaction was terminated with acetonitrile containing tinidazole at 0 min, 5 min, 10 min and 30 min, respectively. The reaction was vortexed for 10 min and centrifuged at 15000 rmp for 10 min, and 50 µL of supernatant was taken into the 96-well plate for sampling. The metabolic stability of the compound was calculated by measuring the relative reduction of the drugs.

[3] = target: T2, CYP1A2 (Homo sapiens, UniProt P05177); assay: Direct inhibition test (DI test), CYP1A2; type: in vitro ADME; conditions: human liver microsomes
T2 construct: a system of 100 µL of human liver microsomes (final concentration 0.2 mg/mL); from tissue; host or cells: human liver microsomes
T2 sequence (P05177 1-516): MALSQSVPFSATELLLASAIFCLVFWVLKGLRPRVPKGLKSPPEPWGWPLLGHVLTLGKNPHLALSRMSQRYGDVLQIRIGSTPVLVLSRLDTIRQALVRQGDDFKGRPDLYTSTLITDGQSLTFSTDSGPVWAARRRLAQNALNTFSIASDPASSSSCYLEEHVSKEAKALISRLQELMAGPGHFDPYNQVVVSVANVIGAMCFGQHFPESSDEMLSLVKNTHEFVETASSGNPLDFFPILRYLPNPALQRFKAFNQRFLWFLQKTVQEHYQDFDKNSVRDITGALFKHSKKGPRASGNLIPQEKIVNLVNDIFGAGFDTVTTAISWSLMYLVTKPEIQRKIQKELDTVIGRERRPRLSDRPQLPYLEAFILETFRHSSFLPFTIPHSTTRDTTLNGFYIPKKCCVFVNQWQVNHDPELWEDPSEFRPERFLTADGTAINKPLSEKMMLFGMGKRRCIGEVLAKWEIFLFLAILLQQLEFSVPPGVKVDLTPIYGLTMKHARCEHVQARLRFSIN
Protocol: Direct inhibition test (DI test): direct inhibition warm incubation was performed with a system of 100 µL of human liver microsomes (final concentration 0.2 mg/mL) containing NADPH (final concentration 1 mM), 10 µM compound, positive inhibitor cocktail (ketoconazole 10 µM, quinidine 10 µM, sulfobenzyrazole 100 µM, α-naphthoflavone 10 µM, tranylcypromine 1000 µM), a negative control (BPS with 0.1% DMSO) and a mixed probe substrate (midazolam 10 µM, testosterone 100 µM, dextromethorphan 10 µM, diclofenac 20 µM, phenacetin100 µM, mephenytoin100 µM), and the reaction was terminated after a warm incubation for 20 min.The relative enzyme activity was calculated by measuring the relative amount of metabolites produced.

[4] = test system: phosphorylated ERK levels of NCI-H358; assay: ERK phosphorylation (western blot), H358; type: cell-based; conditions: Homo sapiens, 3 h
Protocol: Test method 3 (ERK phosphorylation): Miapaca-2 or H358 cells were inoculated at certain concentrations in 96-well plates and incubated overnight at 37° C., 5% CO2 in a cell culture incubator, and serial dilutions of the test compound (5 concentrations, 3-fold dilution) were added to the plates the next day for 24 h (Miapaca-2) or 3 h (H358), then lysis solution containing protease and phosphatase inhibitor were added to lyse the cells to extract proteins and western blot method was used to detect the level of p-ERK.

[5] = Metabolic stability assay, human liver microsomes; type: in vitro ADME; conditions: human liver microsomes 0.5 mg/mL, 1 µM compound, read-out: Liver microsomal stability (T½ /min) human
Protocol: as §1

[6] = test system: NCI-H358 cells; assay: Proliferation test method 2 (3D, Cell Titer Glo 3D), NCI-H358; type: cell-based; conditions: Homo sapiens, NCI-H358, 96 h, read-out: IC50 cell proliferation inhibitory activity against NCI-H358
Protocol: (§2) Test method 2 (3D): The tumor cells in the logarithmic growth phase were diluted with culture solution to a certain concentration and inoculated on the 96-well plate on the ultra-low attachment surface, and the culture medium was 80 µL/well. Cells were incubated overnight at 37° C. in a humidity chamber. On the second day, a series of diluted test compounds (10 concentrations, 3 times dilution) were added to the plate, 20 µL/well, incubated in an incubator for 96h.The plates are removed and placed at room temperature and incubated with an equal volume of Cell Titer Glo®3D reagent for 1 h. The signal is detected by the En Vision™ plate reader. […] A four-parameter nonlinear regression curve was fitted to the percent inhibition for each concentration of the compound and the IC50 was calculated.

[7] = test system: MiaPaca-2 cells; assay: Proliferation test method 2 (3D, Cell Titer Glo 3D), MiaPaca-2; type: cell-based; conditions: Homo sapiens, MIA PaCa-2, 96 h, read-out: IC50 cell proliferation inhibitory activity against MiaPaca-2
Protocol: as §2

T1 sequence (P01116 1-188 isoform P01116-2 G12C): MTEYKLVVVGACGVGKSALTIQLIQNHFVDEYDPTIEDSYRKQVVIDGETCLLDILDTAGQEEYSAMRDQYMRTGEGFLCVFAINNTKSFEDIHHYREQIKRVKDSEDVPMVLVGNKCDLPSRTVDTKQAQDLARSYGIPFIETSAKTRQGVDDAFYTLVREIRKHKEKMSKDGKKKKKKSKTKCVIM

Structure (SMILES)	IC50 [1]	IC50 [3]	IC50 [4]	half-life at 1 µM [5]	IC50 [6]	IC50 [7]	half-life at 1 µM [2]
C=CC(=O)N1C[C@@H]2C(=O)N(C)c3cnc4c(F)c(-c5ccc(F)c6sc(N)nc56)c(Cl)cc4c3N2C[C@H]1C (single isomer, unassigned) [Example 17-1]	50 to 200 nM	> 10 µM	–	–	–	–	> 30 min
C=CC(=O)N1CCN(c2nc(OC[C@@H]3CCCN3C)nc3c(F)c(-c4ccc(F)c5sc(N)nc45)c(Cl)cc23)C[C@H]1C [Example 11, 1-((2R)-4-(7-(2-Amino-7-Fluorobenzo [d] Thiazol-4-yl) -6-Chloro-8-Fluoro-2-(((S)-1-Methylpyrrolidin-2-yl) Methoxy) Quinazolin-4-yl)-2-Methylpiperazin-1-yl) Prop-2-En-1-One]	50 to 200 nM	> 10 µM	< 0.5 µM	> 30 min	< 0.2 µM	< 0.2 µM	–
C=CC(=O)N1CCN(c2c(C#N)c(N3CC(N(C)C)C3)nc3c(F)c(-c4ccc(F)c5sc(N)nc45)c(Cl)cc23)CC1 [Example 21, 4-(4-acryloyl Piperazin-1-yl)-7-(2-Amino-7-Fluorobenzo [d] Thiazol-4-yl) -6-Chloro-2-(3-(Dimethylamino) Azetidine-1-yl)-8-Fluoroquinolin-3 -Cyano]	< 50 nM	> 10 µM	< 0.5 µM	–	–	–	–

The next lines start with results.

IC50 [1]	IC50 [3]	IC50 [4]	half-life at 1 µM [5]	IC50 [6]	IC50 [7]	Structure (SMILES)	half-life at 1 µM [2]
< 50 nM	> 10 µM	< 0.5 µM	> 30 min	–	–	C=CC(=O)N1CCN(c2c(C#N)c(OC[C@@H]3CCCN3C)nc3c(F)c(-c4ccc(F)c5sc(N)nc45)c(Cl)cc23)CC1 [Example 3, 4-(4-Piperazinylacryloylpiperazin-1-yl)-7-(2-Amino-7-Fluorobenzo[d]Thiazol-4-yl)-6-Chloro-8-Fluoro-2-(((S)-1-Methylpyrrolidin-2-Yl)Methoxy)Quinoline-3-Cyano]	–
< 50 nM	> 10 µM	< 0.5 µM	–	< 0.2 µM	< 0.2 µM	C=CC(=O)N1CCN(c2c(C#N)cnc3c(F)c(-c4ccc(F)c5sc(N)nc45)c(Cl)cc23)CC1 [Example 8]	> 30 min
